{"source": "patent EP2763666B1", "about": "(priority 2011, dated 2013)", "key": {"[1]": {"test_system": "L. infantum infected dogs", "format": "in vivo", "settings": "for RT-PCR on lymph node FNA: mean ± standard deviation"}, "[2]": {"test_system": "L. infantum infected dogs", "format": "in vivo", "settings": "for A/G ratio / Serum albumin / Serum γ-globulin: mean ± standard deviation"}, "[3]": {"test_system": "L. infantum infected dogs", "format": "in vivo", "settings": "for Antibody titre: mean ± standard deviation"}, "[4]": {"test_system": "L. infantum infected dogs", "format": "in vivo", "settings": "mean ± standard deviation"}, "canine blood monocytes": {"test_system": "canine blood monocytes", "format": "in vivo, dogs", "settings": "for Macrophages activity of killing: NO production / NBT reduction; for Macrophages activity of killing / Macrophages activity of binding: mean ± standard deviation; for Macrophages activity of binding: direct count of macrophages containing yeast cells"}, "[5]": {"test_system": "L. infantum infected dogs", "format": "in vivo", "settings": "mean ± standard deviation", "remark": "listed apart in the source"}, "generalized demodicosis": {"test_system": "generalized demodicosis", "assay": "Canine generalized demodicosis: IP versus milbemycin oxime", "format": "in vivo, dogs", "settings": "fraction of cases", "procedure": "Twelve dogs diagnosed with generalized demodicosis were treated, 6 with IP and 6 with milbemycin oxime. Cases diagnosed before two years of age were classified as juvenile-onset (58.3%, 7 dogs) and those diagnosed after two years of age as adult-onset (41.6%, 5 dogs). […] As previous mentioned, in six dogs cured with milbemycin oxime, the drug was used for 1-6 months (mean 2.3 months) at a dosage of 0.5-1.6 mg kg-1 body weight (mean 0.75 mg kg-1). No significant difference in dosage or treatment time was seen between juvenile and adult cases. Six dogs cured with IP were treated at the same manner indicated as reported in Example 1, and 6). In group of IP treated dogs, not differences were observed between young and adult treated animals. […] Cases with severe pododemodicosis had less chance of a cure (2/3 not cured) by using M-O protocol, but not with IP protocol (2/2 cured).\nDogs: dogs of every age, breed or sex with generalized demodicosis were used in this study. All dogs. […] Dogs developing the disease at less than two years of age were classified as juvenile-onset generalized demodicosis. Dogs that developed disease at two years of age or older were classified as adult onset generalized demodicosis. […]\nFollow-up: follow-up visits were scheduled once a month for clinical evaluation and skin scrapings. The scraping sites were recorded and sampled at each subsequent examination. […]"}, "[6]": {"settings": "T0 (beginning of therapy), baseline"}}, "note": "Read-outs that look alike come from different tables or passages of the source.", "data": [{"compound": "Cc1ccc(-c2cc(C(F)(F)F)nn2-c2ccc(S(N)(=O)=O)cc2)cc1", "note": "[Celecoxib]", "values": [{"measurement": "side effects: animals with chronic bleeding", "setting": "5 control parrots treated only with anti-COX2", "value": "two"}, {"measurement": "death with acute hemorrhagic event in the proventriculus, time from initiation of therapy", "setting": "adult female African Grey parrot", "value": "≤ 7", "unit": "days"}, {"measurement": "negativization of crop biopsies", "setting": "histology at T1 (six months) and T2 (one year of therapy)", "value": 20, "unit": "%"}, {"measurement": "renal side effect leading to discontinuation", "setting": "in vivo", "value": "inducing renal failure"}, {"measurement": "parrots survived", "setting": "of 5 parrots, 1.5 year later", "value": 1}, {"measurement": "parrots died", "setting": "of 5 parrots, during four months after the end of the therapy", "value": 4}]}, {"compound": "Meglumine antimoniate [Control group]", "values": [{"measurement": "PCR results, levels of DNA copies (trend)", "setting": "[1]; Figure 2B legend, after two months of treatment up to one year", "value": "progressive increase of parasite DNA in lymphnodes and bone-marrow"}, {"measurement": "RT-PCR on lymph node FNA", "setting": "[1]; [6]", "value": "613.228 ± 747.653", "unit": "Parasites/ml"}, {"measurement": "RT-PCR on lymph node FNA", "setting": "[1]; T1 (2 months)", "value": "287.482 ± 434.807", "unit": "Parasites/ml"}, {"measurement": "RT-PCR on lymph node FNA", "setting": "[1]; T2 (6 months)", "value": "210.103 ± 364.909", "unit": "Parasites/ml"}, {"measurement": "RT-PCR on lymph node FNA", "setting": "[1]; T3 (12 months)", "value": "340.367 ± 511.898", "unit": "Parasites/ml"}, {"measurement": "electrophoresis: gamma-globulins levels in sera (trend)", "setting": "[2]; Figure 2D legend", "value": "after a first period of decreasing trend, the gamma globulins trend increase"}, {"measurement": "A/G ratio", "setting": "[2]; [6]", "value": "0,48 ± 0,23"}, {"measurement": "Serum albumin", "setting": "[2]; [6]", "value": "30,08 ± 9,63%"}, {"measurement": "Serum γ-globulin", "setting": "[2]; [6]", "value": "30,67 ± 7,91%"}, {"measurement": "A/G ratio", "setting": "[2]; T1 (2 months)", "value": "0,55 ± 0,23"}, {"measurement": "Serum albumin", "setting": "[2]; T1 (2 months)", "value": "34,03 ± 9,5%"}, {"measurement": "Serum γ-globulin", "setting": "[2]; T1 (2 months)", "value": "23,15 ± 7,46%"}, {"measurement": "A/G ratio", "setting": "[2]; T2 (6 months)", "value": "0,57 ± 0,23"}, {"measurement": "Serum albumin", "setting": "[2]; T2 (6 months)", "value": "35,22 ± 9,35%"}, {"measurement": "Serum γ-globulin", "setting": "[2]; T2 (6 months)", "value": "21,56 ± 5,86%"}, {"measurement": "A/G ratio", "setting": "[2]; T3 (12 months)", "value": "0,57 ± 0,22"}, {"measurement": "Serum albumin", "setting": "[2]; T3 (12 months)", "value": "35,26 ±9,61%"}, {"measurement": "Serum γ-globulin", "setting": "[2]; T3 (12 months)", "value": "22,74 ± 7,93%"}, {"measurement": "trend of antibody (Ab titre)", "setting": "[3]; Figure 2A legend, after the first six months of the trial", "value": "antibody title increase"}, {"measurement": "Antibody titre", "setting": "[3]; [6]", "value": "908 ± 1240"}, {"measurement": "Antibody titre", "setting": "[3]; T1 (2 months)", "value": "779 ± 1031"}, {"measurement": "Antibody titre", "setting": "[3]; T2 (6 months)", "value": "378 ± 321"}, {"measurement": "Antibody titre", "setting": "[3]; T3 (12 months)", "value": "493 ± 678"}, {"measurement": "CD3^+/CD21^+ ratio", "setting": "[4]; [6]", "value": "42,62 ± 21,24"}, {"measurement": "CD4^+/CD8^+ ratio", "setting": "[4]; [6]", "value": "1,02 ± 0,48"}, {"measurement": "CD3^+/CD21^+ ratio", "setting": "[4]; T1 (2 months)", "value": "38,13 ± 20,56"}, {"measurement": "CD4^+/CD8^+ ratio", "setting": "[4]; T1 (2 months)", "value": "1,04 ± 0,46"}, {"measurement": "CD3^+/CD21^+ ratio", "setting": "[4]; T2 (6 months)", "value": "39,85 ± 17,58"}, {"measurement": "CD4^+/CD8^+ ratio", "setting": "[4]; T2 (6 months)", "value": "1,02 ± 0,45"}, {"measurement": "CD3^+/CD21^+ ratio", "setting": "[4]; T3 (12 months)", "value": "38,64 ± 19,54"}, {"measurement": "CD4^+/CD8^+ ratio", "setting": "[4]; T3 (12 months)", "value": "1,31 ± 0,58"}, {"measurement": "Macrophages killing activity, levels of NO production / NBT reduction (trend)", "setting": "canine blood monocytes; Figure 4A legend", "value": "constantly low"}, {"measurement": "Macrophages activity of killing", "setting": "canine blood monocytes; [6]", "value": "1,1 ± 0,1"}, {"measurement": "Macrophages activity of binding", "setting": "canine blood monocytes; [6]", "value": "31,84 ± 12,9"}, {"measurement": "Macrophages activity of killing", "setting": "canine blood monocytes; T1 (2 months)", "value": "1,2 ± 0,1"}, {"measurement": "Macrophages activity of binding", "setting": "canine blood monocytes; T1 (2 months)", "value": "34,84 ± 14,2"}, {"measurement": "Macrophages activity of killing", "setting": "canine blood monocytes; T2 (6 months)", "value": "1,1 ± 0,1"}, {"measurement": "Macrophages activity of binding", "setting": "canine blood monocytes; T2 (6 months)", "value": "35,42 ± 13,68"}, {"measurement": "Macrophages activity of killing", "setting": "canine blood monocytes; T3 (12 months)", "value": "1,1 ± 0,1"}, {"measurement": "Macrophages activity of binding", "setting": "canine blood monocytes; T3 (12 months)", "value": "32,77 ± 12,78"}, {"measurement": "Clinical scores", "setting": "[5]; [6]", "value": "4,4 ±2"}, {"measurement": "Clinical scores", "setting": "[5]; T1 (2 months)", "value": "2,5 ± 1,9"}, {"measurement": "Clinical scores", "setting": "[5]; T2 (6 months)", "value": "2,7 ±2"}, {"measurement": "Clinical scores", "setting": "[5]; T3 (12 months)", "value": "2,8 ± 2,2"}]}, {"compound": "milbemycin oxime [M-O]", "values": [{"measurement": "cases with severe pododemodicosis not cured", "setting": "generalized demodicosis", "value": "2/3"}]}]}
